Square brackets hold non-standard residues; d marks the D form. Peptide text beside a SMILES is read from it. * marks the point of attachment. Biotin = O=C1N[C@H]2[C@H](CS[C@H]2CCCCC(=O)*)N1; Dmt = Cc1cc(O)cc(C)c1C[C@H](N)C(=O)O
Experiments:
[1] = test system: ARPE-19 human retinal pigment epithelial cells; test: Mitochondrial localization: co-localization with cytochrome c oxidase subunit 4 (COX4); assay type: cell-based; details: ARPE-19 cells, 1 uM, 2 hours, serum-free DMEM/F12
Protocol: Cells were fixed with 4% PFA at RT for 10 min and then permeabilized with 0.1% Triton X-100 at RT for 10 min. Cells were blocked with 2% BSA (bovine serum albumin) at RT for 30 min, and then incubated with primary antibody for cytochrome c oxidase subunit 4 (COX4), a major protein complex expressed on the inner mitochondrial membrane. The rabbit polyclonal COX4 antibody (Invitrogen PAS-29992, Waltham, MA) was used at 1:500 dilution in 2% BSA at 4° C. overnight.

[2] = test system: ARPE-19 human retinal pigment epithelial cell monolayers; test: Cell proliferation at scratch edge (PCNA staining); assay type: cell-based; details: ARPE-19 cells, 10 nM, serum-free, 24 hours after scratch
Description: (§1) Re-epithelialization of a wound area require proliferation of cells at the wound edge, which can be impaired in most wounds due to lack of blood flow to deliver nutrients and/or growth factor(s) that can be necessary for cell proliferation. Cell proliferation in the wound edge can be monitored by proliferating cell nuclear antigen (PCNA) staining. To mimic the microenvironment of wounds in vitro, serum-free medium was used for the scratch assay in cell cultures.
(§2) Proliferating cells were identified by immunostaining with antibody to proliferating cell nuclear antigen (PCNA) according to standard procedures as presented in IHC World. PCNA staining was performed using the same plate of cells after determination of scratch area. […] All cell nuclei stain blue with Hoechst, but nuclei of proliferating cells stain red. The number of proliferating cells per field was quantified by the intensity of red nuclear stain and normalized to intensity of blue nuclear stain (determined by Nikon NIS-Elements Imaging Software).

[3] = test system: HK-2 cells; test: Cell viability (Alamar Blue) after 11 days of serum starvation; assay type: cell-based, human; details: 10 nM, vs serum-free control
Protocol: In the first model, HK-2 cells were cultured in 96-well plates in serum-free DMEM alone or in serum-free DMEM containing 10 nM of SPN11 or SPN12 for 11 days. Culture medium was replaced every 3 days.
(§3) Cell viability was measured using the Alamar Blue Cell Proliferation Assay (Bio-Rad), according to manufacturer's protocol. Alamar Blue uses resazurin to measure reducing power of living cells. The weakly fluorescent resazurin is reduced to the highly fluorescent resorufin when reduced by cellular metabolism. Briefly, alamar blue reagent (10 ul) was added to the culture medium and incubated for 1 h at 37° C. Fluorescence from resorufin (Ex/Em 530/590 nm) was detected using a microplate reader (SpectraMax iD3, Molecular Devices).

[4] = test system: HK-2 cells; test: In vitro scratch assay (scratch area); assay type: cell-based, human; details: 10 nM; for scratch area after 24 hours, microscopic images FIG. 15: serum-free DMEM, 24 hours after mechanical scratch; for closure of the scratch area compared to control, FIG. 16 and FIG. 17 / effectiveness in reducing scratch area compared to free biotin, FIG. 16 and FIG. 17: serum-free, 24 hours
Protocol: (§4) Certain exemplary peptide-conjugated biotin molecules can accelerate wound healing in cell cultures. The in vitro scratch assay is an easy and well-developed method to measure cell proliferation and migration over a “wound area” in vitro. This assay involves creating a “scratch” in a cell monolayer with a pipette tip and then examining the rate at which cells proliferate and migrate to close the scratch.
3×10^5 cells were plated per well in 6-well plates in DMEM at 37° C. in a humidified incubator with 5% CO2 for one day prior to the experiment. To mimic the microenvironment of wounds in vitro, serum-free medium was used in the scratch assay. On the day of the scratch assay, the medium was replaced with serum-free DMEM, and a line scraped across the cell monolayer using a p1000 pipette tip. Cells were washed to remove cell debris and replaced with DMEM alone (control), or DMEM containing 10 nM biotin or peptide-conjugated biotin molecules.
(§5) The scratch area was examined immediately (day 0) using a Nikon Eclipse Ti2 fluorescence microscope. Six different field were captured for each sample using 4×objective. The scratch area (cell-free zone) was calculated using ImageJ software, an open-source Java image processing program inspired by NIH Image (National Institute of Health). The scratch area was re-examined after 24 hours (day 1), and the area was normalized to the area determined on day 0 for the same sample. All results were calculated as change from no-treatment control and averaged for the six fields.

[5] = test system: HK-2 cells; test: Cellular ATP in extreme starvation model (serum-free 5% DMEM in PBS, 3 days); assay type: cell-based, human; details: 10 nM
Protocol: ATP was measured using the ApoSENSOR ATP Bioluminescence Assay Kit (BioVision) according to manufacturer's protocol. This kit utilizes luciferase to catalyze the formation of light from ATP and luciferin. Briefly, cells were treated with 100 ul of Nuclear Releasing Buffer for 5 min at RT with gentle shaking. 10 ul of ATP Monitoring Enzyme was added to cell lysate, and luminescence was measured using a microplate reader (SpectraMax iD3, Molecular Device). ATP levels were normalized to the serum-free DMEM control group (arbitrarily set to 1.0).
The second model uses an extreme starvation model whereby HK-2 cells were cultured in 96-well plates in serum-free 5% DMEM in PBS (phosphate-buffered saline) for 3 days. Cells were treated with 10 nM free biotin or peptide-conjugated biotin molecules. All treatments were carried out with N=6 in each experiment.

[6] = test system: HK-2 human renal epithelial cell monolayers; test: Cell proliferation at scratch edge (PCNA staining); assay type: cell-based; details: HK-2 cells, 10 nM, serum-free, 24 hours after scratch; for number of proliferating cells normalized to all nuclei, FIG. 21: compared to control or biotin
Description: as §1, §2

[7] = test system: HK-2 cells; test: Mitochondrial potential (TMRM) of cells at the scratch edge; assay type: cell-based, human; details: 10 nM, serum-free, 24 hours after scratch; for mitochondrial potential (red fluorescence) normalized to nuclear number, FIG. 25: compared to control
Description: Rapidly dividing cells can need ATP to support the synthesis of important building blocks. Tissue injury can cause rapid mitochondrial depolarization that compromises ATP production and/or results in cell death. The loss of ATP can further impair cell proliferation and/or tissue repair. Mitochondrial potential can be monitored in the cells at the edge of the scratch area using the cell-permeable potential-dependent dye TMRM (tetramethylrhodamine methyl ester). TMRM can accumulate in negatively charged polarized mitochondria and can be detected as red fluorescence. To mimic the microenvironment of wounds in vitro, serum-free medium was used in the scratch assay. […] HK-2 cells were then incubated with 5 nM TMRM in DMEM without phenol red and incubated for 30 min. Cells were then covered with live cell image buffer and imaged using Nikon Eclipse Ti2 fluorescent microscope (20× objective).

[8] = test system: ARPE-19 human retinal pigment epithelial cells; test: Biotin uptake by streptavidin-Alexa Fluor 594 fluorescence in ARPE-19 cells; details: 1 uM, 1-hour incubation, serum-free
Protocol: Cellular uptake and localization of peptide-conjugated biotin molecules were determined in HK-2 human renal epithelial cells and ARPE-19 human retinal pigment epithelial cells (ATCC, Manassas, VA). HK-2 cells were cultured in Dulbecco's Modified Eagle's Medium (DMEM) containing 1 g/L glucose and 10% fetal bovine serum (FBS), 100 units/ml penicillin and 100 ug/ml streptomycin. ARPE-19 cells were cultured in DMEM/F12 medium containing 1 g/L glucose and 10% fetal bovine serum (FBS), 100 units/ml penicillin and 100 ug/ml streptomycin. Cells were incubated in humidified incubator with 5% CO2 at 37° C. HK-2 cells and ARPE-19 cells were seeded in 35 mm dish at an initial density of 5×10^4 cells. FBS was removed from the culture medium for 3 days to deplete endogenous biotin in the cells. […]
Biotin uptake was determined using Streptavidin binding. […] By using Alexa Fluor 594-conjugated streptavidin, it is possible to visualize biotin uptake using fluorescence microscopy. […] Live cell image buffer was added and Alexa-594 fluorescence (Ex/Em=591/614 nm) and Hoechst fluorescence ([…]) was observed using the Nikon Eclipse Ti2 fluorescence microscope (100×oil objective). Ten random fields from each sample were quantified by NIS-Elements Imaging Software (Nikon) for streptavidin fluorescence and normalized to Hoechst fluorescence to account for number of cells per field.

[9] = test system: ARPE-19 cells; test: Cell number and viability after 30 days of serum deprivation; assay type: cell-based, human; details: 10 nM
Protocol: as §3
In the second model, ARPE-19 cells were grown in serum-free DMEM in the absence or presence of peptide-conjugated biotin molecules for 30 days. Serum-free media was supplemented with 10 nM of SPN12, SPN15 or SPN16 compounds (all at 10 nM) was replaced every 3 days. Culture medium was replaced every 3 days.

[10] = test system: ARPE-19 cells; test: In vitro scratch assay (scratch area); assay type: cell-based, human
Description: as §4, §5

SMILES | number of proliferating (PCNA-positive) cells at the edge of the scratch, images FIG. 22 [2] | scratch area after 24 hours, microscopic images FIG. 15 [4] | closure of the scratch area compared to control, FIG. 16 and FIG. 17 [4] | effectiveness in reducing scratch area compared to free biotin, FIG. 16 and FIG. 17 [4] | number of proliferating cells normalized to all nuclei, FIG. 21 [6] | number of cells with good mitochondrial potential (TMRM) at scratch edge, images FIG. 24 [7] | mitochondrial potential (red fluorescence) normalized to nuclear number, FIG. 25 [7] | further results
Cc1cc(O)cc(C)c1C[C@H](NC(=O)[C@@H](CCCNC(=N)N)NC(=O)CCCC[C@@H]1SC[C@@H]2NC(=O)N[C@@H]21)C(=O)N[C@@H](CCCCN)C(=O)N[C@@H](Cc1ccccc1)C(N)=O [SPN05, D-Biotin-D-Arg-L-(2′6′-dimethylTyr)-L-Lys-L-Phe-NH2] (Biotin-[dR][Dmt]KF-NH2) |  |  |  |  |  |  |  | co-localization of biotin staining with COX4 staining (inner mitochondrial membrane), FIG. 6 [1]: co-localization
N=C(N)NCCC[C@@H](NC(=O)[C@@H](Cc1c[nH]c2ccccc12)NC(=O)CCCC[C@@H]1SC[C@@H]2NC(=O)N[C@@H]21)C(=O)N[C@H](Cc1c[nH]c2ccccc12)C(=O)N[C@H](CCCCN)C(=O)O [SPN08, D-Biotin-D-Trp-D-Arg-D-Trp-D-Lys-OH] (Biotin-[dW][dR][dW][dK]-OH) | increased the number of proliferating cells |  |  |  |  |  |  | 
N=C(N)NCCC[C@@H](NC(=O)[C@H](N)Cc1c[nH]c2ccccc12)C(=O)N[C@H](Cc1c[nH]c2ccccc12)C(=O)N[C@H](CCCCNC(=O)CCCC[C@@H]1SC[C@@H]2NC(=O)N[C@@H]21)C(=O)O [SPN09, D-Trp-D-Arg-D-Trp-D-Lys(biotinyl)-OH] (H-[dW][dR][dW][dK](Biotin)-OH; N-terminus assumed) | increased the number of proliferating cells |  |  |  |  |  |  | 
N=C(N)NCCC[C@H](NC(=O)[C@@H](N)Cc1c[nH]c2ccccc12)C(=O)N[C@@H](Cc1c[nH]c2ccccc12)C(=O)N[C@@H](CCCCNC(=O)CCCC[C@@H]1SC[C@@H]2NC(=O)N[C@@H]21)C(N)=O [SPN11, L-Trp-L-Arg-L-Trp-L-Lys(biotinyl)-NH2] (H-WRWK(Biotin)-NH2; N-terminus assumed) | increased the number of proliferating cells | almost completely closed | significantly accelerated the closure of the scratch area | twice as effective | doubled | increased the number of cells with good mitochondrial potential | significantly increased mitochondrial potential | improvement of cell viability in the absence of serum, FIG. 7 [3]: 35%; ATP content compared to free biotin under extreme starvation, FIG. 12 [5]: doubling; number of proliferating (PCNA-positive) cells at the edge of the scratch, images FIG. 20 ([6]; compared to free biotin): increased the number of proliferating cells
N=C(N)NCCC[C@@H](NC(=O)CCCC[C@@H]1SC[C@@H]2NC(=O)N[C@@H]21)C(=O)N[C@@H](Cc1ccc(O)cc1)C(=O)N[C@H](CCCNC(=N)N)C(=O)N[C@@H](Cc1ccccc1)C(=O)N[C@@H](CCCCNC(=O)CCCC[C@@H]1SC[C@@H]2NC(=O)N[C@@H]21)C(N)=O [SPN16, D-Biotin-D-Arg-L-Tyr-D-Arg-L-Phe-L-Lys(biotinyl)-NH2] (Biotin-[dR]Y[dR]FK(Biotin)-NH2) |  |  | significantly accelerated the closure of the scratch area | three times more effective |  |  |  | intracellular streptavidin staining (cellular uptake of biotin), microscopic images FIG. 4 [8]: intense red staining with a perinuclear distribution; cell viability after serum deprivation compared to control, FIG. 9 ([9]; 30 days of serum deprivation): doubled; cell number after prolonged serum deprivation, microscopic images FIG. 8 ([9]; 30 days serum-free): increased cell number; wound healing (scratch closure), FIG. 18 [10]: accelerated wound healing
O=C(O)CCCC[C@@H]1SC[C@@H]2NC(=O)N[C@@H]21 [biotin] | no effect | small effect on reducing scratch area | significantly accelerated the closure of the scratch area |  | small and did not reach statistical significance | no effect | did not reach statistical significance | increase of the percent of proliferating cells at the edge of the scratch, FIG. 23 ([2]; compared to control): without effect
